Source: US10638754B2, “Methods of attracting Drosophila suzukii using acetoin blend” (The United States of America, as Represented by the …, priority 2016, dated 2020)

What was measured:
D. suzukii [1] = assay: laboratory two-choice bioassay (treatment vs. blank control); assay type: in vivo, Drosophila suzukii; conditions: for attraction against blank control: 20 μL standard dose, FIG. 3D, 3E; for D. suzukii that made choice: 20 μL, FIG. 3E; for attraction compared to a blank control: 50 μL total volume, N=15, FIG. 3C
Protocol: Laboratory behavioral bioassay: To identify the key components for D. suzukii attraction from the apple juice 7-components blend, a two-choice laboratory bioassay (testing chemical or chemical blend vs. blank control) was used and different combinations of 7-components were evaluated. A complete test apparatus consisted of a plastic cup containing two trap tubes with two lure vials, and a water wick (FIG. 2). The plastic cups were clear, cylindrical polypropylene food containers (946 mL, diameter 114 mm, height 127 mm, Paper Mart, CA). […] The polystyrene trap tubes (95 mm×28.5 mm, same as those used in insect rearing) were labeled “T” for treatment and “B” for blank control, respectively, and were then given the appropriate lure. Lures were either tested chemical/chemical blends (unless otherwise indicated, 20 μL pure individual or blend) loaded onto a small cotton ball held within a small polyethylene lure vial (26 mm×8 mm×1.5 mm thickness, Just Plastic Ltd., Norwich, UK) or blank controls of plain cotton or cotton with solvent (in dose response trials) held in the same type of small lure vial. Each lure vial (open lid) was placed vertically within its trap tube and then the top of each trap tube was sealed with Parafilm® (Pechiney plastics packaging Inc. Menasha, Wis.) leaving only a 4 mm diameter hole in the center to provide an entrance for attracted flies. Each pair of loaded trap tubes were then placed vertically on opposite sides of the test cups with the entrance holes facing upwards. A water wick consisting of a glass scintillation vial (20 mL, VWR, PA) filled with deionized water and plugged with a cotton ball was laid on the bottom of the plastic cup to serve as a water source for the flies during the experiment (FIG. 2). Flies were immobilized using a CO2 stream and 10 were transferred into each testing apparatus. The fully-assembled test apparatus cups were then covered with their ventilated lids. All assays were conducted in a fume hood (120-cm-length×60-cm-width×70-cm-height) using new lures and young flies (2-8 days post-eclosion) under 25° C., 60% RH, and a 16:8 hour (L:D) photoperiod. Mixed-sex D. suzukii were used in bioassays unless stated otherwise, and all flies within and outside treatment and control trap tubes were counted and sexed after 48 hours.
All statistical comparisons were considered for significance at α=0.05.

D. suzukii [2] = assay: preliminary field test with baited traps, 2014; assay type: in vivo, Drosophila suzukii; conditions: for Mean ± SD (SWD captured): Oct. 17 to Oct. 24, 2014, 3 replicates; for Total no. SWD captured: Oct. 17 to Oct. 24, 2014, Beltsville, 3 replicates
Protocol: (§1) Field test: Commercially-available Victor® yellowjacket and flying insect traps (Great Lakes IPM Inc., Vestaburg, Mich.) filled with ˜300 mL of tap water containing a surfactant (Seventh Generation™ natural dish liquid—free and clear, Shoppers Food and Pharmacy, College Park, Md., 4 mL/gallon) as a drowning solution were used in all field tests at the Beltsville Agricultural Research Center-West, Beltsville, Md. (10300 Baltimore Ave., Beltsville, Md.) and at the blueberry field at Butler's Orchard (22222 Davis Mill Rd, Germantown, Md.). Unless otherwise indicated, pure chemical (individual or blend, 1 mL) was loaded onto a cotton ball held within a polypropylene flex micro-centrifuge tube (1.5 mL Eppendorf micro-centrifuge tube, VWR International, Radnor, Pa.) and the lid of the tube was then closed. Tubes filled only with a cotton ball were used as blank controls. The micro-centrifuge tube lure was opened and the lid was snapped into one of four holes on the cap of the Victor® trap, leaving the three remaining holes to serve as entrances for attracted insects. At the Beltsville Agricultural Research Center, traps were hung from the branches of trees on the edge of a small woodlot in blocks consisting of 3-5 treatments and 1 blank control with the traps spaced approximately 5 m apart within a group. The treatments were randomly arranged at different positions within the block and blocks were separated by 10-20 m. At the blueberry field in Butler's Orchard, traps were hung from the branches of blueberry bushes, deployed in blocks consisting of 3 treatments with the traps spaced approximately 5 m apart in a group. The traps were randomly arranged at different positions within the block and blocks were separated by 10-20 m.
The preliminary field tests were conducted at the Beltsville Agricultural Research Center during Oct. […] In 2015 and 2016, three additional treatments were formulated: treatment 14 ((2-components, including acetoin (AT) and ethyl octanoate (EO) in 1:1 ratio), treatment 16 (single-component, acetoin (AT)), and treatment 17 (single-component, ethyl octanoate (EO)). The rest of the compounds, including ethanol (EtOH) (10 mL) and acetic acid (AA) (1 mL), were added into drowning water and evaluated as individual attractant or synergistic attractive agent whenever needed. In 2016, ACV (300 mL, Essential Everyday®, 5% acidity, Shoppers Food and Pharmacy, College Park, Md.) and a commercially-available Scentry® SWD lure (Great Lakes IPM Inc., Vestaburg, Mich.) were used as standard lures for SWD attraction activity comparison. […] In addition, ethyl acetate (EA) (5 mL) and phenethyl alcohol (PE) (1 mL) were added to the drowning solution and evaluated as individual attractants or synergistic attractive agents. […] Flies were counted in the laboratory.

D. suzukii [3] = assay: field tests in 2015, baited traps; assay type: in vivo, Drosophila suzukii; conditions: for attraction of D. suzukii in the field: traps, Beltsville, late fall 2015, FIG. 4-6
Protocol: as §1
The preliminary field tests were conducted at the Beltsville Agricultural Research Center during Oct. 17 to 24, 2014, using six different lures: (1) apple juice blend (treatment 1, 7-components based on apple juice fermentation products (FIG. 1), including isobutanol (IB):2-methyl butanol (2MB):3-methyl butanol (3MB):ethyl hexanoate (EH):acetoin (AT):ethyl octanoate (EO):methyl benzoate (MB) in natural ratios of 4:7:7:0.3:1:0.3:2) (v/v)), (2) raspberry blend (11-components blend, including butyl acetate:hexanal:2-heptanone:3-methyl-butanol:trans-2-hexenal:3-methyl-2-butyl acetate:2-heptanol:hexanol:cis-3-hexenol:6-methyl-5-hepten-2-ol:linalool; obtained from Sigma-Aldrich; mixed into an 11-component blend in natural ratios of 1:36:3:5:10:2:7:8:9:2:8 (v/v), respectively))(Abraham, J. et al., Environ. Entomol., 44 (2): 356-367 (2015)), (3) single component (2-methyl butanol (2MB)), (4) 3-methyl butanol (3MB), (5) binary components blend ((2MB+3MB in 1:1 ratio)), and (6) blank control. In 2015 and 2016, three additional treatments were formulated: treatment 14 ((2-components, including acetoin (AT) and ethyl octanoate (EO) in 1:1 ratio), treatment 16 (single-component, acetoin (AT)), and treatment 17 (single-component, ethyl octanoate (EO)). The rest of the compounds, including ethanol (EtOH) (10 mL) and acetic acid (AA) (1 mL), were added into drowning water and evaluated as individual attractant or synergistic attractive agent whenever needed. In 2016, ACV (300 mL, Essential Everyday®, 5% acidity, Shoppers Food and Pharmacy, College Park, Md.) and a commercially-available Scentry® SWD lure (Great Lakes IPM Inc., Vestaburg, Mich.) were used as standard lures for SWD attraction activity comparison. The amount of AA in the drowning solution in each trap was increased from 1 mL to 15 mL to reach the same acidity (5%) with ACV. In addition, ethyl acetate (EA) (5 mL) and phenethyl alcohol (PE) (1 mL) were added to the drowning solution and evaluated as individual attractants or synergistic attractive agents. Lure dispenser tubes and trap drowning solutions with captured insects were collected and replaced every week unless otherwise indicated. Flies were counted in the laboratory.

[4] = lure release rate from micro-centrifuge tube dispensers; assay type: physicochemical; conditions: for first order rate constant k of desorption: 1 mL loading, micro-centrifuge tube dispenser, fume hood
Protocol: Lure Release Rate: Release rates of three different kinds of attractants, including acetoin (AT), ethyl octanoate (EO), and a blend of AT and EO (ratio=1:1), were measured under controlled conditions in a laboratory fume hood. Each attractant (1 mL) was loaded onto cotton balls held in open micro-centrifuge tubes (1.5 mL, VWR International, Radnor, Pa.). Fifteen of these micro-centrifuge tubes (five of each tested attractant) were suspended on hooks in a fume hood (temperature: 20-25° C., face velocity: 129 feet/min). Each tube was weighed every 24-h or 72-h (weekend) and the amount of attractant residue was calculated and recorded over a period of two weeks.

D. suzukii [5] = assay: field tests in 2016, baited traps; assay type: in vivo, Drosophila suzukii; conditions: Nov.-Dec. 2016, FIG. 7-11
Protocol: (§2) Field test: Commercially-available Victor® yellowjacket and flying insect traps (Great Lakes IPM Inc., Vestaburg, Mich.) filled with ˜300 mL of tap water containing a surfactant (Seventh Generation™ natural dish liquid—free and clear, Shoppers Food and Pharmacy, College Park, Md., 4 mL/gallon) as a drowning solution were used in all field tests at the Beltsville Agricultural Research Center-West, Beltsville, Md. (10300 Baltimore Ave., Beltsville, Md.) and at the blueberry field at Butler's Orchard (22222 Davis Mill Rd, Germantown, Md.). […]
(§3) The preliminary field tests were conducted at the Beltsville Agricultural Research Center during Oct. […] In 2015 and 2016, three additional treatments were formulated: treatment 14 ((2-components, including acetoin (AT) and ethyl octanoate (EO) in 1:1 ratio), treatment 16 (single-component, acetoin (AT)), and treatment 17 (single-component, ethyl octanoate (EO)). The rest of the compounds, including ethanol (EtOH) (10 mL) and acetic acid (AA) (1 mL), were added into drowning water and evaluated as individual attractant or synergistic attractive agent whenever needed. In 2016, ACV (300 mL, Essential Everyday®, 5% acidity, Shoppers Food and Pharmacy, College Park, Md.) and a commercially-available Scentry® SWD lure (Great Lakes IPM Inc., Vestaburg, Mich.) were used as standard lures for SWD attraction activity comparison. […]

other D. spp. = assay: field tests in 2015, baited traps, non-target catch; assay type: in vivo; conditions: EtOH combined with the AT+AA blend; field 2015; FIG. 4
Protocol: as §2, §3

For `CCC(C)CO` (stereo not shown) [2MB, 2-methyl-1-butanol], the “attraction against blank control” value (D. suzukii [1]; 48 h) was “repellent effect”, the “D. suzukii that made choice” value (D. suzukii [1]; 48 h) was 37% and the “Mean ± SD (SWD captured)” value (D. suzukii [2]) was 1.00 ± 1.00c. The “Total no. SWD captured” value (D. suzukii [2]) was 3.
In the case of `CC(C)CCO` [3MB, 3-methyl-1-butanol], the “Mean ± SD (SWD captured)” value (D. suzukii [2]) is reported as 3.00 ± 1.00c and the “Total no. SWD captured” value (D. suzukii [2]) is reported as 9.
For `CC(=O)O` [AA, acetic acid], the “attraction of D. suzukii in the field” value (D. suzukii [3]) was “inactive by itself” and the “attraction compared to a blank control” value (D. suzukii [1]) was “not attractive”.
In the case of `CC(=O)C(C)O` (stereo not shown) [AT, 3-hydroxy-2-butanone], the “attraction of D. suzukii in the field” value (D. suzukii [3]) is reported as “significantly more attractive than EO”, the “time to release 50% (half-life of dispenser, t1/2=0.693/k)” value [4] is reported as ~48 h and the first order rate constant k of desorption [4] is reported as 0.316 day⁻¹. The “attraction against blank control” value (D. suzukii [1]; 48 h) was “elicited attraction” and the “attraction against blank control” value (D. suzukii [1]; 48 h, listed as Acetoin) was “moderate activity”.
In the case of `CCOC(C)=O` [EA, ethyl acetate], the “attraction of D. suzukii in the field” value (D. suzukii [5]) is reported as “not attractive in the field”.
In the case of `CCCCCCCC(=O)OCC` [EO, ethyl octanoate], the “synergistic effect when combined with AA” value (D. suzukii [3]; field 2015) is reported as “No synergistic effect”, the “attraction of D. suzukii in the field” value (D. suzukii [3]) is reported as “did not show any activity at all” and the first order rate constant k of desorption [4] is reported as 0.049 day⁻¹. The “attraction against blank control” value (D. suzukii [1]; 48 h) was “most attractive component”, the “D. suzukii that made choice” value (D. suzukii [1]; 48 h) was 96% and the “Mean ± SD (D. suzukii captured in tubes)” value (D. suzukii [1]; 50 μL loading, 5 replicates of 10 flies, 48 h) was 9.80 ± 0.45a. For the same compound, the Total no. captured (D. suzukii [1]; 50 μL loading, 5 replicates, 50 flies tested in total, 48 h) was 49, the “effectiveness compared with other treatments” value (D. suzukii [1]; 50 μL loading, N=5) was “captured significantly more D. suzukii than trap vials baited with treatment 1” and the “attraction against blank control, dose response” value (D. suzukii [1]; all doses from 0.3 μL to 300 μL, FIG. 3F) was “Significantly attractive activities”.
For `CCO` [EtOH, ethanol, reference compound], the “trap catch of non-target Drosophila” value (other D. spp.) was “attracted significantly more non-target Drosophila”, the “SWD specificity of the blend” value (D. suzukii [3]; ethanol added to blend of AT and AA) was ~30% and the “attraction of D. suzukii in the field” value (D. suzukii [3]) was “did not show significant activity”. For the same compound, the “attraction compared to a blank control” value (D. suzukii [1]) was “significantly more attractive”.
In the case of `OCCc1ccccc1` [PE, phenethyl alcohol], the “attraction of D. suzukii in the field” value (D. suzukii [5]) is reported as “did not show any activity”.
